# In patent publication US20140315886A1, “QUINAZOLINES AS THERAPEUTIC COMPOUNDS AND RELATED METHODS OF USE” (OTSUKA PHARMACEUTICAL CO., LTD., priority 2011, published 2014):
# Where a name gives a salt, the structure may show the parent alone.
# Biological target: T1, purified STEP46 enzyme (Homo sapiens, UniProt P54829)
# T1 sequence (P54829 197-565 limits assumed): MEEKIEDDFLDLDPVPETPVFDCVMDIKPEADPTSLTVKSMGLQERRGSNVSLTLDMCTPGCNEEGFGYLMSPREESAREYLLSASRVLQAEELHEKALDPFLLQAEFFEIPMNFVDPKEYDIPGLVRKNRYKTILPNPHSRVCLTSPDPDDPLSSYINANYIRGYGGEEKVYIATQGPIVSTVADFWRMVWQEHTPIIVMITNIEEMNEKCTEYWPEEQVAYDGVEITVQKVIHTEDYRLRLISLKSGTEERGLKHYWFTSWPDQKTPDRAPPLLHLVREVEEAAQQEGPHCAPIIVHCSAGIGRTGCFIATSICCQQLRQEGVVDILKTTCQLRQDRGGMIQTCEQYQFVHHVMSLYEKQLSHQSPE
# Test: STEP46 biochemical assay (DiFMUP fluorescence phosphatase assay)
# Conditions: DiFMUP 10 μM, read-out: STEP IC50
# Procedure, shortened: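 Purified human STEP46 preincubated 30 min at room temperature with compounds in Hepes/DTT/Brij35 buffer (2% DMSO final), then reacted with 10 μM DiFMUP for 90 min at 27°C; fluorescence read at 360/460 nm. IC50 from four-parameter fit; activation shown as negative % inhibition at 25, 50, 100 uM.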
row,SMILES,IC50
1,Fc1ccc(-c2ccc3nc(-c4cccnc4)nc(N4CCc5cc(Cl)ccc54)c3c2)cc1 [Compound 86],1 to 10 µM
2,CNc1nc(-c2cccnc2)nc2ccc(-c3cc(F)nc(F)c3)cc12 [Compound 283],1 to 10 µM
3,CNc1nc(-c2cnccn2)nc2ccc(-c3ccc(F)cc3F)c(F)c12 [Compound 976],1 to 10 µM
4,Fc1cccc(-c2ccc3nc(-c4ccnnc4)nc(NCc4ccccn4)c3c2)c1F [Compound 333],> 10 µM
5,Clc1ccc2c(c1)CCN2c1nc(-c2cccnc2)nc2ccc(-c3ccc4c(c3)OCO4)cc12 [Compound 76],1 to 10 µM
6,CNc1nc(-c2cccnc2)nc2c(F)cc(-c3ccccc3OC)cc12 [Compound 566],> 10 µM
7,Fc1cccc(-c2ccc3nc(-c4cccnc4)nc(NCCc4ccccn4)c3c2)c1 [Compound 336],1 to 10 µM
8,CNc1nc(-c2cccnc2)nc2ccc(-c3ccc(F)cc3C)cc12 [Compound 247],1 to 10 µM
9,Fc1ccc(-c2ccc3nc(-c4cccnc4)nc(Nc4cccc(F)n4)c3c2)cc1 [Compound 439],1 to 10 µM
10,CNc1nc(-c2cccnc2)nc2cc(-c3cc(F)cc(OC)c3)ccc12 [Compound 279],< 1 µM
11,COc1ccc2nc(-c3cccnc3)nc(Nc3cccc(F)n3)c2c1 [Compound 32],> 10 µM
12,CNc1nc(-c2cccnc2)nc2ccc(-c3ccc(S(C)(=O)=O)c(C(F)(F)F)c3)cc12 [Compound 199],1 to 10 µM
13,CNc1nc(-c2cccnc2)nc2ccc(-c3ccc(F)cc3C(F)(F)F)cc12 [Compound 248],> 10 µM

# Second part, the compound after the results:
row,IC50,SMILES
1,1 to 10 µM,CNc1nc(-c2cccnc2)nc2cc(-c3cccs3)ccc12 [Compound 319]
2,1 to 10 µM,Fc1ccc(-c2ccc3nc(-c4cccnc4)nc(Nc4ccc(F)cn4)c3c2)cc1 [Compound 436]
3,1 to 10 µM,CNc1nc(-c2cccnc2)nc2cc(F)c(-c3cccc(F)c3F)cc12 [Compound 594]
4,1 to 10 µM,Cc1ccc(Nc2nc(-c3cccnc3)nc3ccc(-c4ccc(F)cc4)cc23)nc1 [Compound 441]
5,1 to 10 µM,Cc1c(-c2ccc(C#N)cc2)ccc2c(N(C)C)nc(-c3cccnc3)nc12 [Compound 291]
6,< 1 µM,CCOc1ccc2nc(-c3cccnc3)nc(Nc3cncc(Cl)c3)c2c1 [Compound 69]
7,1 to 10 µM,"CNc1nc(-c2cccnc2)nc2ccc(OCCCN3CCN(C)CC3)cc12 [Compound 136, N-methyl-6-(3-(4-methylpiperazin-1-yl)propoxy)-2-(pyridin-3-yl)quinazolin-4-amine tetrahydrochloride]"
8,1 to 10 µM,CNc1nc(-c2cnccn2)nc2c(F)c(-c3ccc(F)cc3F)ccc12 [Compound 995]
9,< 1 µM,O=[N+]([O-])c1ccc2c(c1)CCN2c1nc(-c2cccnc2)nc2cc(-c3cccnc3)ccc12 [Compound 106]
10,< 1 µM,CNc1nc(-c2cccnc2)nc2c(F)c(-c3ccc4c(cnn4C)c3)ccc12 [Compound 532]
11,1 to 10 µM,Fc1ccc(-c2ccc3nc(-c4cccnc4)nc(Nc4cc(F)ccn4)c3c2)cc1 [Compound 442]
12,< 1 µM,c1ccc(CNc2nc(-c3cccnc3)nc3ccc(-c4cc5ccccc5o4)cc23)nc1 [Compound 343]
13,> 10 µM,Cc1ccc2c(c1)CCN2c1nc(-c2cccnc2)nc2ccc(-c3cc(F)cc(F)c3)cc12 [Compound 80]
